Assay results as given in ChEMBL document CHEMBL1201862, “PubChem BioAssay data set” (2004).
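48-hour exposure; five concentrations; linearly interpolated endpoints. Abbreviation: GI50, concentration required for 50% inhibition of growth.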 Activity calls are given as the source filed them. Rule as the data show it: active = GI50 up to about 1.1 µM and inactive = higher.

Assays:
Experiment in all cases: DTP human tumour cell line panel, 48 h
IGROV-1 = test system: IGROV-1
OVCAR-3 = test system: OVCAR-3
HCC 2998 = test system: HCC 2998
NCI-H460 = test system: NCI-H460
UACC-257 = test system: UACC-257
SF-268 = test system: SF-268
MCF7 = test system: MCF7
NCI-H522 = test system: NCI-H522
HL-60 = test system: HL-60
TK-10 = test system: TK-10
SF-295 = test system: SF-295
MDA-MB-231 = test system: MDA-MB-231
ACHN = test system: ACHN
HT-29 = test system: HT-29
SNB-19 = test system: SNB-19
Hs-578T = test system: Hs-578T
SK-MEL-5 = test system: SK-MEL-5
DU-145 = test system: DU-145
OVCAR-8 = test system: OVCAR-8
CCRF-CEM = test system: CCRF-CEM

Row | Structure (SMILES) | GI50 (IGROV-1) | GI50 (OVCAR-3) | GI50 (HCC 2998) | GI50 (NCI-H460) | GI50 (UACC-257) | GI50 (SF-268) | GI50 (MCF7) | GI50 (NCI-H522) | GI50 (HL-60) | GI50 (TK-10) | GI50 (SF-295) | GI50 (MDA-MB-231) | GI50 (ACHN) | GI50 (HT-29) | GI50 (SNB-19) | GI50 (Hs-578T) | GI50 (SK-MEL-5) | GI50 (DU-145) | GI50 (OVCAR-8) | GI50 (CCRF-CEM)
1 | C=C1C(=O)C[C@H]2C(=C)C(=O)O[C@@H]2C2C1CC[C@@]2(C)O (stereo not given in full) | 33.1 µM (inactive) | 16.1 µM (inactive) | 19 µM (inactive) | 18.8 µM (inactive) | 21.5 µM (inactive) | > 100 µM (inactive) | 16 µM (inactive) | 12.7 µM (inactive) | > 100 µM (inactive) | 21.1 µM (inactive) | > 100 µM (inactive) | 25.1 µM (inactive) | 12.2 µM (inactive) | 20 µM (inactive) | > 100 µM (inactive) | 26.9 µM (inactive) | 39.4 µM (inactive) | 73.3 µM (inactive) | 31.7 µM (inactive) | > 100 µM (inactive)
2 | COC(=O)C1C(O)C(C)C(O)C(C)C=C(C)C2=C3C(=C(C)C(=O)c4c(O)c(c(C)c(OC(C)=O)c43)NC(=O)C(C)=C/C=C\C(C)C(O)C(C)C1O)OCO2 (stereo not given) | 42.1 µM (inactive) | 18.6 µM (inactive) | 34.3 µM (inactive) | 67.5 µM (inactive) | 13.4 µM (inactive) | 16.1 µM (inactive) | 25.3 µM (inactive) | 16 µM (inactive) | 17.8 µM (inactive) | 56.1 µM (inactive) | 51.6 µM (inactive) | 23.8 µM (inactive) | 27 µM (inactive) | 27.7 µM (inactive) | > 100 µM (inactive) | 61.2 µM (inactive) | 19.9 µM (inactive) | 57.7 µM (inactive) | 27.7 µM (inactive) | 23.6 µM (inactive)
3 | O=C(O)[C@@H]1NC[C@H]2C(Br)=NO[C@H]21 | > 100 µM (inactive) | > 100 µM (inactive) | > 100 µM (inactive) | 78.2 µM (inactive) | > 100 µM (inactive) | > 100 µM (inactive) | 86.9 µM (inactive) | > 100 µM (inactive) | > 100 µM (inactive) | 94.8 µM (inactive) | > 100 µM (inactive) | > 100 µM (inactive) | > 100 µM (inactive) | > 100 µM (inactive) | > 100 µM (inactive) | > 100 µM (inactive) | 69.5 µM (inactive) | > 100 µM (inactive) | > 100 µM (inactive) | > 100 µM (inactive)
4 | Cc1[nH]c(=O)[nH]c(=S)c1C(=O)NC(C)(CO)CO | > 100 µM (inactive) | > 100 µM (inactive) | > 100 µM (inactive) | > 100 µM (inactive) | > 100 µM (inactive) | > 100 µM (inactive) | > 100 µM (inactive) | > 100 µM (inactive) | > 100 µM (inactive) | > 100 µM (inactive) | > 100 µM (inactive) | > 100 µM (inactive) | > 100 µM (inactive) | > 100 µM (inactive) | > 100 µM (inactive) | > 100 µM (inactive) | > 100 µM (inactive) | > 100 µM (inactive) | > 100 µM (inactive) | > 100 µM (inactive)
5 | CN(C)CCCC12CCCCC1=Nc1ccccc12 (stereo not given) | > 100 µM (inactive) | > 100 µM (inactive) | > 100 µM (inactive) | > 100 µM (inactive) | > 100 µM (inactive) | > 100 µM (inactive) | > 100 µM (inactive) | 97.7 µM (inactive) | 26.1 µM (inactive) | > 100 µM (inactive) | > 100 µM (inactive) | > 100 µM (inactive) | > 100 µM (inactive) | > 100 µM (inactive) | > 100 µM (inactive) | > 100 µM (inactive) | > 100 µM (inactive) | > 100 µM (inactive) | > 100 µM (inactive) | 76.6 µM (inactive)
6 | C/C(=N\Nc1nc2ccccc2o1)c1ccncn1 | 0.116 µM (active) | 0.0524 µM (active) | 1.02 µM (active) | 0.0964 µM (active) | 0.396 µM (active) | 0.132 µM (active) | 0.0556 µM (active) | 0.0419 µM (active) | 0.0218 µM (active) | 1.12 µM (active) | 0.363 µM (active) | 0.169 µM (active) | 0.0638 µM (active) | 0.0356 µM (active) | 0.432 µM (active) | 0.955 µM (active) | 0.181 µM (active) | 1.26 µM (inactive) | 0.0929 µM (active) | 0.0481 µM (active)
7 | N#C[BH2-][n+]1cn(C2CC(OP(=O)(O)OCC3OC(n4cnc5c(N)ncnc54)CC3O)C(CO)O2)c2nc(N)[nH]c(=O)c21 (stereo not given) | > 100 µM (inactive) | > 100 µM (inactive) | > 100 µM (inactive) | > 100 µM (inactive) | > 100 µM (inactive) | > 100 µM (inactive) | > 100 µM (inactive) | > 100 µM (inactive) | > 100 µM (inactive) | > 100 µM (inactive) | > 100 µM (inactive) | > 100 µM (inactive) | > 100 µM (inactive) | > 100 µM (inactive) | > 100 µM (inactive) | > 100 µM (inactive) | > 100 µM (inactive) | > 100 µM (inactive) | > 100 µM (inactive) | > 100 µM (inactive)
